From US11655243B2, “Pyridine and pyrazine derivatives as preferential cannabinoid 2 agonists” (HOFFMANN-LA ROCHE INC., priority 2018, dated 2023)

Target: human CNR2 receptors (CB2 receptor) (Homo sapiens (Human), UniProt P34972)
Assay: Radioligand binding assay, human CB2 (CNR2)
Conditions: not given
Protocol: Radioligand Binding Assay
The affinity of the compounds of the invention for cannabinoid CB1 receptors was determined using recommended amounts of membrane preparations (PerkinElmer) of human embryonic kidney (HEK) cells expressing the human CNR1 or CNR2 receptors in conjunction with 1.5 or 2.6 nM [3H]-CP-55,940 (Perkin Elmer) as radioligand, respectively. Binding was performed in binding buffer (50 mM Tris, 5 mM MgCl2, 2.5 mM EDTA, and 0.5% (wt/vol) fatty acid free BSA, pH 7.4 for CB1 receptor and 50 mM Tris, 5 mM MgCl2, 2.5 mM EGTA, and 0.1% (wt/vol) fatty acid free BSA, pH 7.4 for CB2 receptor) in a total volume of 0.2 ml for 1 h at 30° C. shaking. The reaction was terminated by rapid filtration through microfiltration plates coated with 0.5% polyethylenimine (UniFilter GFB filter plate; Packard). Bound radioactivity was analyzed for Ki using nonlinear regression analysis (Activity Base, ID Business Solution, Limited), with the Kd values for [3H]CP55,940 determined from saturation experiments. The compounds of formula (I) show an excellent affinity for the CB2 receptor.
The compounds according to formula (I) have an activity in the above assay (Ki) between 0.5 nM and 10 μM. Particular compounds of formula (I) have an activity in the above assay (Ki) between 0.5 nM and 3 μM. Other particular compounds of formula (I) have an activity in the above assay (Ki) between 0.5 nM and 100 nM.

Chain of human CNR2 receptors (CB2 receptor) (P34972 whole entry): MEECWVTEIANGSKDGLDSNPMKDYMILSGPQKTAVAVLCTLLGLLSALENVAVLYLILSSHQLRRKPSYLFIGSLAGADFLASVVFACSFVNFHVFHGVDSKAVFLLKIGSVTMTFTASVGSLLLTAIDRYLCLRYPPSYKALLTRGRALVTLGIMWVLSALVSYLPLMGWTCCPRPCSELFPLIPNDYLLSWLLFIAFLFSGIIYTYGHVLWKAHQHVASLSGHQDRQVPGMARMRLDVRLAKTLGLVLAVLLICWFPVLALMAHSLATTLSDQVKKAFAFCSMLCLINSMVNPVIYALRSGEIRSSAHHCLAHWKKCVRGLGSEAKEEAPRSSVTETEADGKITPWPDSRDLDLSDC

Compound	Ki [nM]
CCC(CC)(NC(=O)c1ccc(N2CC(OC)C2)c(OC[C@H]2C[C@@H]2CO)n1)C(=O)OCF (stereo in doubt) [Example 12, (+)-trans-Fluoromethyl 2-ethyl-2-{[6-{[-2-(hydroxymethyl)cyclopropyl]methoxy}-5-(3-methoxyazetidin-1-yl)pyridine-2-carbonyl]amino}butanoate]	0.4

Same assay, conditions: membranes of HEK cells expressing human CNR2, 2.6 nM [3H]-CP-55,940 radioligand; read-out: Binding assay human CB2 Ki

Compound	Ki [nM]
CCOC(=O)C(CC)(CC)NC(=O)c1ccc(N2CC(OC)C2)c(OC[C@H]2C[C@@H]2COCF)n1 (stereo in doubt) [Example 9, (+)-trans-Ethyl 2-ethyl-2-{[6-({-2-[(fluoromethoxy)methyl]cyclopropyl}methoxy)-5-(3-methoxyazetidin-1-yl)pyridine-2-carbonyl]amino}butanoate]	0.2
CCC(CC)(NC(=O)c1ccc(N2CC(OC)C2)c(OC[C@H]2C[C@@H]2CO)n1)C(=O)OCCF (stereo in doubt) [Example 13, (+)-trans-2-Fluoroethyl 2-ethyl-2-{[6-{[-2-(hydroxymethyl)cyclopropyl]methoxy}-5-(3-methoxyazetidin-1-yl)pyridine-2-carbonyl]amino}butanoate]	0.3
CCOC(=O)C(CC)(CC)NC(=O)c1cc(F)c(N2CC(OC)C2)c(OCC2CC2)n1 [Example 7, Ethyl 2-{[6-(cyclopropylmethoxy)-4-fluoro-5-(3-methoxyazetidin-1-yl)pyridine-2-carbonyl]amino}-2-ethylbutanoate]	2.5
CCOC(=O)C(CC)(CC)NC(=O)c1ccc(N2CC(OC)C2)c(OCC(C)(C)COCF)n1 [Example 8, Ethyl 2-ethyl-2-({6-[3-(fluoromethoxy)-2,2-dimethylpropoxy]-5-(3-methoxyazetidin-1-yl)pyridine-2-carbonyl}amino)butanoate]	143
CCOC(=O)C(CC)(CC)NC(=O)c1ccc(N2CC(OC)C2)c(OC[C@@H]2C[C@H]2COCF)n1 [Example 10, (−)-trans-Ethyl 2-ethyl-2-{[6-({-2-[(fluoromethoxy)methyl]cyclopropyl}methoxy)-5-(3-methoxyazetidin-1-yl)pyridine-2-carbonyl]amino}butanoate]	8.2
CCC(CC)(NC(=O)c1ccc(N2CC(OC)C2)c(OC[C@@H]2C[C@H]2CO)n1)C(=O)OCF [Example 11, (−)-trans-Fluoromethyl 2-ethyl-2-{[6-{[(1R,2R)-2-(hydroxymethyl)cyclopropyl]methoxy}-5-(3-methoxyazetidin-1-yl)pyridine-2-carbonyl]amino}butanoate]	9.7
CCC(CC)(NC(=O)c1ccc(N2CC(OC)C2)c(OC[C@@H]2C[C@H]2CO)n1)C(=O)OCCF [Example 14, (−)-trans-2-Fluoroethyl 2-ethyl-2-{[6-{[-2-(hydroxymethyl)cyclopropyl]methoxy}-5-(3-methoxyazetidin-1-yl)pyridine-2-carbonyl]amino}butanoate]	11.4
CCC(CC)(NC(=O)c1ccc(N2CC(OC)C2)c(OC[C@H]2C[C@@H]2CO)n1)C(=O)OCCCF [Example 15, 3-Fluoropropyl 2-ethyl-2-{[6-{[(1S,2S)-2-(hydroxymethyl)cyclopropyl]methoxy}-5-(3-methoxyazetidin-1-yl)pyridine-2-carbonyl]amino}butanoate]	0.7
CC(C)C[C@@H](COCCF)NC(=O)c1ccc(N2CCCC2)c(OCC2COC2)n1 [Example 18, N-[(2S)-1-(2-Fluoroethoxy)-4-methylpentan-2-yl]-6-[(oxetan-3-yl)methoxy]-5-(pyrrolidin-1-yl)pyridine-2-carboxamide]	21

Second part, the compound after the results:

Ki [nM]	Compound
3940	CCC(CC)(NC(=O)c1ccc(N2CC(F)C2)c(OC[C@H]2C[C@@H]2CO)n1)C(=O)N[C@H](CO)CC(C)C (single isomer, unassigned) [Example 28, N-[1-Ethyl-1-[[(1S)-1-(hydroxymethyl)-3-methyl-butyl]carbamoyl]propyl]-5-(3-fluoroazetidin-1-yl)-6-[[(1S,2S)-2-(hydroxymethyl)cyclopropyl]methoxy]pyridine-2-carboxamide or N-[1-ethyl-1-[[(1S)-1-(hydroxymethyl)-3-methyl-butyl]carbamoyl]propyl]-5-(3-fluoroazetidin-1-yl)-6-[[(1R,2R)-2-(hydroxymethyl)cyclopropyl]methoxy]pyridine-2-carboxamide]
10.9	CCC(CC)(NC(=O)c1ccc(N2CC(F)C2)c(OC[C@@H]2C[C@H]2CO)n1)C(=O)OCCCF (single isomer, unassigned) [Example 29, 3-Fluoropropyl 2-ethyl-2-{[5-(3-fluoroazetidin-1-yl)-6-{[(1R,2R)-2-(hydroxymethyl)cyclopropyl]methoxy}pyridin-2-yl]formamido}butanoate or 3-fluoropropyl 2-ethyl-2-{[5-(3-fluoroazetidin-1-yl)-6-{[(1S,2S)-2-(hydroxymethyl)cyclopropyl]methoxy}pyridin-2-yl]formamido}butanoate]
1.7	CCC(CC)(NC(=O)c1ccc(N2CC(F)C2)c(OC[C@H]2C[C@@H]2CO)n1)C(=O)OCCCF (single isomer, unassigned) [Example 30, 3-Fluoropropyl 2-ethyl-2-{[5-(3-fluoroazetidin-1-yl)-6-{[(1S,2S)-2-(hydroxymethyl)cyclopropyl]methoxy}pyridin-2-yl]formamido}butanoate or 3-fluoropropyl 2-ethyl-2-{[5-(3-fluoroazetidin-1-yl)-6-{[(1R,2R)-2-(hydroxymethyl)cyclopropyl]methoxy}pyridin-2-yl]formamido}butanoate]
18.8	CCC(CC)(NC(=O)c1ccc(N2CC(OC)C2)c(OC[C@@H]2C[C@H]2CO)n1)C(=O)OCCCF [Example 16, 3-Fluoropropyl 2-ethyl-2-{[6-{[(1R,2R)-2-(hydroxymethyl)cyclopropyl]methoxy}-5-(3-methoxyazetidin-1-yl)pyridine-2-carbonyl]amino}butanoate]
331	COC1CN(c2ccc(C(=O)N[C@H](COCCF)CC(C)C)nc2OCC2COC2)C1 [Example 17, N-[(2S)-1-(2-Fluoroethoxy)-4-methylpentan-2-yl]-5-(3-methoxyazetidin-1-yl)-6-[(oxetan-3-yl)methoxy]pyridine-2-carboxamide]
0.8	[2H]C([2H])(F)C([2H])([2H])C([2H])([2H])OC(=O)C(CC)(CC)NC(=O)c1ccc(N2CC(OC)C2)c(OC[C@H]2C[C@@H]2CO)n1 [Example 19, (1,1,2,2,3,3-Hexadeuterio-3-fluoro-propyl) 2-ethyl-2-[[6-[[(1S,2S)-2-(hydroxymethyl)cyclopropyl]methoxy]-5-(3-methoxyazetidin-1-yl)pyridine-2-carbonyl]amino]butanoate]
525	C=CC(C=C)(NC(=O)c1ccc(N2CC(OC)C2)c(OC[C@H]2C[C@@H]2CO)n1)C(=O)OCCCF [Example 20, 3-Fluoropropyl 2-[6-[[(1S,2S)-2-(hydroxymethyl)cyclopropyl]methoxy]-5-(3-methoxyazetidin-1-yl)pyridine-2-carbonylamino]-2-vinyl-but-3-enoate]
21.6	CCC(CC)(NC(=O)c1ccc(N2CC(OC)C2)c(OC[C@H]2C[C@@H]2CO)n1)C(=O)OCCCOS(=O)(=O)c1ccc(C)cc1 [Example 23, 3-(p-Tolylsulfonyloxy)propyl 2-ethyl-2-[[6-[[(1S,2S)-2-(hydroxymethyl)cyclopropyl]methoxy]-5-(3-methoxyazetidin-1-yl)pyridine-2-carbonyl]amino]butanoate]
65.5	[2H]C([2H])(OC(=O)C(CC)(CC)NC(=O)c1ccc(N2CC(OC)C2)c(OC[C@H]2C[C@@H]2CO)n1)C([2H])([2H])C([2H])([2H])OS(=O)(=O)c1ccc(C)cc1 [Example 24, [1,1,2,2,3,3-Hexadeuterio-3-(p-tolylsulfonyloxy)propyl] 2-ethyl-2-[[6-[[(1S,2S)-2-(hydroxymethyl)cyclopropyl]methoxy]-5-(3-methoxyazetidin-1-yl)pyridine-2-carbonyl]amino]butanoate]
130	CCC(CC)(NC(=O)c1ccc(N2CC(OC)C2)c(OC[C@H]2C[C@@H]2CO)n1)C(=O)N[C@H](CO)CC(C)C [Example 26, N-[1-Ethyl-1-[[(1S)-1-(hydroxymethyl)-3-methyl-butyl]carbamoyl]propyl]-6-[[(1S,2S)-2-(hydroxymethyl)cyclopropyl]methoxy]-5-(3-methoxyazetidin-1-yl)pyridine-2-carboxamide]
246	CCC(CC)(NC(=O)c1ccc(N2CC(OC)C2)c(OC[C@H]2C[C@@H]2COCc2ccccc2)n1)C(=O)OCCCF [Example 32, 3-Fluoropropyl 2-[[6-[[(1S,2S)-2-(benzyloxymethyl)cyclopropyl]methoxy]-5-(3-methoxyazetidin-1-yl)pyridine-2-carbonyl]amino]-2-ethyl-butanoate]
348	CCC(CC)(NC(=O)c1ccc(N2CCCC2)c(OCC2(CO)COC2)n1)C(=O)OCF [Example 33, Fluoromethyl 2-ethyl-2-[[6-[[3-(hydroxymethyl)oxetan-3-yl]methoxy]-5-pyrrolidin-1-yl-pyridine-2-carbonyl]amino]butanoate]
607	CCC(CC)(NC(=O)c1ccc(N2CCCC2)c(OCC2(CO)COC2)n1)C(=O)OCCF [Example 34, 2-Fluoroethyl 2-ethyl-2-(6-((3-(hydroxymethyl)oxetan-3-yl)methoxy)-5-(pyrrolidin-1-yl)picolinamide)butanoate]
